Reference: US9694090B2, “Process for preparing hyperpolarized substrates and method for MRI” (priority 2010, dated 2017)

Experiments:
[1] = Glass formation of the DNP preparation upon rapid freezing in liquid nitrogen; type: physicochemical; conditions: for Glass formation upon rapid freezing in liquid nitrogen: dissolved in 12 M NaOH with radical 1; for Glass formation upon rapid freezing: with trityl radical, without addition of glass-forming agents
Experimental: Butyric acid (11.7 mg, 0.13 mmol) was placed into an Eppendorf tube and mixed with 9.0 mg of a glycerol solution containing 39 mM of Radical 1. This preparation was 7 M with respect to butyric acid.
Butyric anhydride (40 μl, 0.24 mmol) was added to an Eppendorf tube and mixed with 1 mg of Radical 3 in a total concentration of 15 mM. This preparation was 6.5 M with respect to butyric anhydride (which, upon hydrolysis provides a 13 M concentration in butyric acid molecules).
Butyric acetic anhydride (36 μl, 0.28 mmol) was added to an Eppendorf tube and mixed with 0.85 mg of acid form of Radical 3 in a total concentration of 15 mM. This preparation was 7.5 M with respect to butyric acetic acid.
Li-acetoacetate (22.4 mg, 0.21 mmol) was added to an Eppendorf tube and mixed with 28 μl of a DMSO preparation (25 mM Radical 3 and 0.8 mM 3-Gd). This preparation was 4 M with respect to Li-acetoacetate.
To an Eppendorf tube was added diketene (9.6 mg, 0.11 mmol) and mixed with 4.7 mg of a DMSO preparation of Radical 3 (45 mM) and 3-Gd (1.5 mM). This preparation was 8.5 M with respect to diketene.
Ethyl acetoacetate (45 μl, 0.34 mmol) was added to an Eppendorf tube and mixed with acid form of Radical 2 (0.7 mg, 0.65 μmol) in a total concentration of 15 mM. This preparation was 8 M with respect to ethyl acetoacetate.
Cis-aconitic acid (18.6 mg, 0.11 mmol) was added to an Eppendorf tube and mixed with a 32.5 μl DMSO preparation (25 mM Radical 3 and 0.8 mM 3-Gd). This preparation was 2.5 M with respect to cis-aconitic acid.
Cis-aconitic anhydride (188 mg, 1.2 mmol) was added to an Eppendorf tube and mixed with 2.85 mg (2 μmol) of Radical 1 and 0.98 mg of a 83 μmol/g solution of 3-Gd. This preparation was 9 M with respect to cis-aconitic anhydride.
Succinic acid (42.1 mg, 0.35 mmol) was added to an Eppendorf tube and mixed and mixed with 92 mg of a DMSO preparation (20 mM Radical 3 and 0.8 mM 3-Gd). This preparation was 4 M with respect to succinic acid.
Succinic anhydride (21.5 mg, 0.21 mmol) was added to an Eppendorf tube and mixed with 21.8 mg of a DMSO solution of Radical 3 (30 mM) and of 3-Gd (1 mM). This preparation was 6 M with respect to succinic anhydride.
Succinic-(1)-ethyl ester (111 mg, 0.75 mmol) was added to an Eppendorf tube and mixed with the carboxylic acid form of Radical 2 (2.4 mg, 1.5 μmol) and 3-Gd (3.4 μl of a 14.5 mM solution in water). This preparation was 6 M with respect to succinic-(1)-ethyl ester.
(§1) L-Glutamine (50.9 mg, 0.35 mmol) was added to an Eppendorf tube and dissolved in 29 μl of 12 M NaOH and mixed with 1.7 mg of radical 1 and 3-Gd (2.3 μl of a 14.5 mM water stock solution). This preparation was 4 M with respect to L-glutamine.

[2] = DNP solid-state polarization signal and build-up (1.2 K, 3.35 T); conditions: DNP at 1.2 K
Experimental: To this solution 1.1 mg (0.77 μmol) radical 1 was added. […] This entire sample was hyperpolarized under DNP conditions at 1.2 K in a 3.35 T magnetic field under irradiation with microwave (93.900 GHz) until the polarization was fully build-up. The polarization was monitored in solid state with small pulse angles (5 degree) collected every 300 s.
This entire sample was polarized under DNP conditions at 1.2 K in a 3.35 T magnetic field under irradiation with microwave (93.900 GHz) until the polarization was fully built-up. The polarization was monitored in solid state with small pulse angles (5 degree) collected every 300 s.
To this solution 0.77 mg (0.54 μmol) radical 1 was added. […] This entire sample was polarized under DNP conditions at 1.2 K in a 3.35 T magnetic field under irradiation with microwave (93.900 GHz) until the polarization was fully built-up. The polarization was monitored in solid state with small pulse angles (5 degree) collected every 300 s.
To this solution 1.65 mg (1.15 μmol) radical 1 was added. […] This entire sample was polarized under DNP conditions at 1.2 K in a 3.35 T magnetic field under irradiation with microwave (93.900 GHz) until the polarization was fully built-up. The polarization was monitored in solid state with small pulse angles (5 degree) collected every 300 s.
63.2 mg (0.33 mmol) of this sample was hyperpolarized under DNP conditions at 1.2 K in a 3.35 T magnetic field under irradiation with microwave (93.900 GHz) until the polarization was fully built-up.

[3] = Hydrolysis of the DNP hyperpolarized precursor on dissolution with strong base, followed by 13C-NMR time series; type: physicochemical; conditions: water with added NaOH
Experimental: (§2) The composition from example 1b (25 mg, 0.16 mmol) was transferred from the Eppendorf tube to a sample cup and the sample cup was inserted into a DNP polariser. The composition was hyperpolarised under DNP conditions at 1.2 K in a 3.35 T magnetic field under irradiation with microwave (93.915 GHz). The sample was hyperpolarized for 75 min.
The sample was dissolved in 4 ml water with added NaOH (50 μl of 12M solution). The pH of the dissolved sample was 12. The solution was collected directly into a 10 mm NMR tube and transferred to a 14.1 T magnet where a time series of 5 degree 1D 13C-NMR spectra were recorded with a total delay between the pulses of 1 s.
as §2, with “is (33” for “1b (25”, “0.25” for “0.16”, “90” for “75”
The sample was dissolved in 5 ml water with added NaOH (125 μl of 12M). The solution was collected directly into a 10 mm NMR tube and transferred to a 14.1 […]) T magnet where a time series of 5 degree 1D 13C-NMR spectra were recorded with a total delay between the pulses of 1 s.
(§3) The entire composition from example 2b was transferred from the Eppendorf tube to a sample cup and the sample cup was inserted into a DNP polariser. The composition was hyperpolarised under DNP conditions at 1.2 K in a 3.35 T magnetic field under irradiation with microwave (93.915 GHz). The sample was hyperpolarized for 3 hours.
(§4) The sample was dissolved in 5 ml water with added NaOH (125 μl of 12 M). The solution was collected directly into a 10 mm NMR tube and transferred to a 14.1 T magnet (pH 13) where a time series of 64 five degree 1D 13C-NMR spectra were recorded with a total delay between the pulses of 3 s.
as §2, with “is (20.5” for “1b (25”, “2 hours.” for “75 min.”
(§5) The sample was dissolved in 5 ml water with added NaOH (200 μl of 12 M). The solution was collected directly into a 10 mm NMR tube and transferred to a 14.1 T magnet (pH 12.8) where a time series of 5 degree 1D 13C-NMR spectra were recorded with a total delay between the pulses of 3 s.
as §3, with “The” for “The entire”, “2b was melted on a water-bath and stirred with a magnetic stirrer. 45 mg of this preparation (0.29 mmol)” for “2b”, “90 min.” for “3 hours.”
(§6) The sample was dissolved in 6 ml water with added NaOH (190 μl of 12 M). The solution was collected directly into a 10 mm NMR tube and transferred to a 14.1 T magnet (pH 12.8) where a time series of 64 five degree 1D 13C-NMR spectra were recorded with a total delay between the pulses of 3 s.

[4] = Glass formation of the DNP preparation upon rapid freezing in liquid nitrogen; type: physicochemical; conditions: dissolved in heated water with Radical 1 and 3-Gd
[5] = test system: carboxylic-ester hydrolase from porcine liver; experiment: Enzymatic hydrolysis of the hyperpolarized ester with esterase, 13C-NMR time series; type: biochemical; conditions: approximately 270 U esterase, phosphate buffer pH 7.3, 37° C.
Description: The ester was fully hydrolyzed to acetoacetate after 12s.

[6] = molecular target: T1, acylase from porcine kidney (Sus scrofa, UniProt P37111); experiment: Enzymatic hydrolysis of the hyperpolarized N-acetyl amino acid with acylase, 13C-NMR time series; type: biochemical; conditions: phosphate buffer pH 7.3, 37° C.
T1 construct: an acylase from porcine kidney; from tissue; host or cells: porcine kidney
T1 sequence (P37111 2-407 limits assumed): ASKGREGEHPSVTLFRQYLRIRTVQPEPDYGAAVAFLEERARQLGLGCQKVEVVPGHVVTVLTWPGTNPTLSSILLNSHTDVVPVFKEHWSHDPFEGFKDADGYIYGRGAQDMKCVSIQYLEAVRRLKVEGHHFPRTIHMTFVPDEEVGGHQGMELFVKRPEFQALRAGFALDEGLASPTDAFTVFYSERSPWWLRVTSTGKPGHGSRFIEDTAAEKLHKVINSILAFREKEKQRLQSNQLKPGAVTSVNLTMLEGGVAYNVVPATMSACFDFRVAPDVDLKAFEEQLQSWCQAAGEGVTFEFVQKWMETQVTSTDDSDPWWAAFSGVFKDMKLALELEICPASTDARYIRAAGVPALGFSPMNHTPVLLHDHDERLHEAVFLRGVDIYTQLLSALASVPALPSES
Experimental: The sample was hyperpolarized for 60 min.
The 10 mm NMR tube contained a 1 ml phosphate solution of approximately 90 U of an acylase from porcine kidney.
35 mg of N-acetyl glycine (117.1 g/mol, 0.298 mmol) was dissolved in 26 μl 12 M NaOH. Heating, sonication and vortexing was applied to create a clear glassing solution. The total weight of the sample was 71 mg (50 μl weigh 65 mg). 1.05 mg Radical 1 and 1.5 μl of a 3-Gd stock solution ([…]) was added. The total N-acetyl glycine concentration in the sample was 5.5 M, the radical concentration was 13.5 mM, and the 3-Gd concentration was 0.4 mM.
The sample was dissolved in 7 ml 40 mM phosphate buffer (40 mM, pH 7.3). […] The 10 mm NMR tube contained a 500 μl phosphate solution of approximately 230 U of an acylase (5.2 mg) from porcine kidney.

[7] = Degradation / isomerisation of the substrate in DNP preparation and dissolution (NMR)
Experimental: as §3, with “2a” for “2b”, “75 min.” for “3 hours.”
The sample was dissolved in 5 ml phosphate buffer pH 7.3 (40 mM+EDTA).
The solution was collected directly into a 10 mm NMR tube and transferred to a 14.1 T magnet where a 90 degree 1D 13C-NMR spectrum was recorded.
as §4, §5
The sample was dissolved in 5 ml 40 mM phosphate buffer pH 7.3+100 mg/l EDTA, thus resulting in an ester concentration of 20 mM. 1 ml of the ester solution was injected through a transfer line into a 10 mm NMR tube placed at 14.1 T and 37° C. The 10 mm NMR tube contained a 500 μl solution of approximately 270 U of a carboxylic-ester hydrolase from porcine liver. A time series of 10 degree 1D 13C-NMR spectra were recorded with a total delay between the pulses of 3 s.
as §5, with “phosphate buffer (40 mM, pH 7.3)” for “water”, “30” for “NaOH (200”, “μl” for “μl of”, “M NaOH. […]” for “M).”, “magnet” for “magnet (pH 12.8)”
as §6, §1
N-acetyl-L-glutamine (57.2 mg, 0.3 mmol) was added to an Eppendorf tube and dissolved in 25.3 μl of 12 M NaOH and mixed with 1.9 mg of radical 1 and 3-Gd (2.3 μl of a 14.5 mM water stock solution).

Glass formation upon rapid freezing [1]	SMILES	Glass formation upon rapid freezing in liquid nitrogen [1]	Polarization build-up time constant [2]	other results
–	C=C(CC(=O)O)[13C](=O)O [1-13C Itaconic acid, reference compound]	formed a glass	1790 s	–
–	O=C1N[C@H]([13C](=O)O)CS1 [1-13C OTZ, 1-13C-L-oxothiazolidine-4-carboxylic acid, reference compound]	formed a glass	3500 s	–
–	O=C1CCC([13C](=O)O)N1 (centres unmarked) [1-13C Pyroglutamic acid, reference compound]	formed a glass	2000 s	–
formed a glass	CCOC(=O)C1CCC(=O)N1 (centres unmarked) [1-13C pyroglutamic ethyl ester]	–	2070 s	Precursor hydrolyzed ([3]; in less than 10 s, pH 11-12.6): at least 95%
–	O=C([O-])CCC(=O)C(=O)[O-].[Na+].[Na+] [2-oxoglutarate sodium salt]	–	–	Glass formation upon rapid freezing in liquid nitrogen [4]: formed a glass
formed a glass	CCOC(=O)CC(C)=O [Ethyl acetoacetate]	–	–	Precursor hydrolyzed ([3]; after 10 s, pH 12-13): approximately 20%; Time after which ester was fully hydrolyzed [5]: 12 s
–	CC(=O)NCC(=O)O [N-acetyl glycine]	–	–	Time after which precursor was fully hydrolyzed ([6]; approximately 230 U acylase): 30 s
–	CC(=O)N[C@@H](CCC(N)=O)C(=O)O [N-acetyl-L-glutamine]	formed a glass	–	Time after which precursor was fully hydrolyzed ([6]; approximately 90 U acylase): 45 s; Degradation in the DNP preparation [7]: does not degrade; Degradation in the dissolution process ([7]; pH 7.3): does not degrade

SMILES	Glass formation upon rapid freezing [1]	Glass formation upon rapid freezing in liquid nitrogen [1]	Polarization build-up time constant [2]	other results
CCO[13C](=O)C1CSC(=O)N1 (centres unmarked) [1-13C OTZ ethyl ester]	formed a glass	–	1925 s	–
